Source: patent US20210299079A1, “MONOMETHYL FUMARATE-CARRIER CONJUGATES AND METHODS OF THEIR USE” (Flagship Pioneering Innovations V, Inc., priority 2018, published 2021)

Assays:
Assay type in all cases: cell-based
IL-8 = assay: Neutrophil Chemokine Production Assay: IL-8; conditions: human neutrophils, 12 h
Procedure: (§1) A volume 25 mL of human blood was layered over 15 mL of Histopaque®-1077 and centrifuged at 500 g, R^T, for 30 min with no break applied to the centrifuge. The PBMC band and Histopaque®-1077 layer were removed leaving behind the bottom red layer which was mixed with 40 mL of 1× red blood cell (RBC) lysis buffer (Sigma-Aldrich) was and split into two 50 mL tubes. The volume for both fractions was brought to 50 mL with RBC lysis buffer, mixed by inversion, and then incubated at RT for 10 min. Solutions were centrifuged at 250 g, for 10 min at RT and the supernatant liquids removed. The reddish pellets were re-suspended in 1 mL of RBC lysis buffer and combined. The cell suspension was incubated for 5 min at RT in RBC lysis buffer. After incubation 45 mL of Hanks Balanced Salt Solution with no calcium, magnesium or phenol red (HBSS—) was added, the cell suspension was spun (250 g for 10 min at RT), and supernatant liquids were removed. The white pellet was re-suspended in 1 mL of HBSS—, and cell counts were determined. The neutrophil cell suspension was brought to a concentration of 1.11e6 cells/mL in RPMI complete (Sigma-Aldrich), and 180 μL of cell suspension was transferred to all wells within a sterile 96-well tissue culture treated plate resulting in 2.0×10^5 cells/well. […] After incubation, 10 μL of 2 μg/mL LPS solution in RPMI complete was added to each well except for control wells, which received an additional 10 μL of media. Cells were incubated for 12 h (37° C., 5% CO2), after which plates were centrifuged at 250 g, RT, for 5 min and supernatant liquids were obtained and stored at −80° C. until analyzed via Luminex® Multiplex Assay for various chemokines and cytokines. Three data points were acquired from two different blood donors and averaged.

MIP-1α = assay: Neutrophil Chemokine Production Assay: MIP-1α; conditions: human neutrophils, 12 h
Procedure: as §1

MIP-1β = assay: Neutrophil Chemokine Production Assay: MIP-1β; conditions: human neutrophils, 12 h
Procedure: as §1

Caco-2 colonocytes = assay: Human Caco-2 Barrier Integrity Assay, Study 1; conditions: Caco-2, + cytokines (TNFα, IFNγ, IL-1β), 48 hours
Procedure: Caco-2 colonocytes were maintained at 37° C. and 5% CO2 in Dulbecco's Modified Eagle Medium (DMEM) and supplemented with 10% FBS, 1% NEAA, 1% penicillin-streptomycin. At 70-80% confluency, cells were trypsinized and seeded in 0.4 cm^2 transwell collagen I coated membranes with supplemented DMEM in both apical and basolateral compartments. […] After 48 hours, TEER readings were taken again and viability was measured by CellTiter 96® AQueous One Solution Cell Proliferation Assay (Promega).

naïve CD4+ T cells = assay: Human Regulatory T Cell Differentiation Assay; conditions: 6 days; for Cell viability % DMSO: viability dye; for activity at 1 µM: IL-2, 1 μM
Procedure: Peripheral blood mononuclear cells (PBMCs) from whole blood donated by health volunteers were separated by Ficoll-Paque gradient centrifugation and naïve CD4^+ T cells were subsequently isolated using magnet beads (EasySep™ Human Naïve CD4^+ T Cell Isolation Kit, Cambridge, Mass.). For regulatory T cell (Treg) differentiation assay, naïve CD4^+ T cells were cultured (1-10×10^4 cells) in CTS OpTmizer medium for 6 days and stimulated with 5 ng/ml TGF-β, 100 U/ml IL-2, and ImmunoCult™ Human […] T Cell Activator; Stemcell #10990) with/without our Compounds. Cell viability was determined using a viability dye (eBioscience Fixable Viability Dye eFluor 780: ThermoFisher 65-0865-14) at 1:500 dilution. The cells were gated for Treg, defined as Live, CD11c^−, CD14^−, CD19^−, CD8^−, CD4^+, CD3^+, CD25^+, FOXP3^+. Percent (%) Tregs were calculated as percentage of CD4^+, CD25^+, FOXP3^+ cells over total CD4^+ T cells. Statistical analysis was performed with GraphPad Prism Software Using One-Way ANOVA.

TNFα = assay: Cytokine Release from Human PBMCs: TNFα; conditions: LPS, 24 hours, Concentration 100 μM
Procedure: (§2) Human donor blood (8 mL) was collected in sodium citrate CPT tubes and centrifuged at 1,600×g for 20 minutes at room temperature. Buffy coat containing PBMCs was collected and transferred to a 50 mL conical tube containing 30 mL of RPMI-1640 medium at room temperature (supplemented with penicillin-streptomycin). PBMCs samples were centrifuged at 400×g for 10 minutes at 10° C. The pelleted PBMCs were washed twice in 10 ml of RPMI-1640 medium (supplemented with penicillin-streptomycin), then resuspended in RPMI-1640 medium (supplemented with penicillin-streptomycin, fetal bovine serum, and L-Glutamine). PBMCs were filtered through a 70 micron mesh to remove any cellular debris. […] PBMCs in a 96-well plate were rested for 30 minutes in a 37° C., 5% CO2 incubator, then subsequently treated with 10 μI of indicated compound. After 2 hours 10 μL of LPS (0111:64) 1 mg/mL was added to test wells. After 24 hours of incubation at 37° C., 5% CO2, 100 μL of cell supernatant was collected and transferred to a 96-well plate (non-tissue treated, flat bottom). The plate was centrifuged at 350×g for 5 minutes at room temperature, and then the clear supernatant transferred to a new 96-well plate (non-tissue treated, flat bottom). The remaining cells were tested for viability using CellTiter-Glo® Luminescent Cell Viability Assay (Promega). The supernatant was analyzed for TNFα, IL-6 and IL-1β (kit […] Systems), using Luminex Immunoassay Technology (MAGPIX System).

IL-6 = assay: Cytokine Release from Human PBMCs: IL-6; conditions: LPS, 24 hours, Concentration 100 μM
Procedure: as §2

IL-1β = assay: Cytokine Release from Human PBMCs: IL-1β; conditions: LPS, 24 hours, Concentration 100 μM
Procedure: as §2

[1] = Homo sapiens, 144 h, TGF-β, read-out: Treg induction % DMSO

SMILES	% IL-8 (Vehicle + LPS = 100%) (IL-8; Conc. 500.0 μM)	% MIP-1α (Vehicle + LPS = 100%) (MIP-1α; Conc. 500.0 μM)	% MIP-1β (DMSO + LPS = 100%) (MIP-1β; Conc. 500.0 μM)	% Change in TEER from DMSO (Caco-2 colonocytes; 100 μM)	TNFα % of DMSO control (TNFα)	IL6 % DMSO control (IL-6)	IL1β % DMSO control (IL-1β)	Cell viability % DMSO (naïve CD4+ T cells; 1 μM)	activity at 1 µM (naïve CD4+ T cells; [1]) [%]	% IL-8 (Vehicle + LPS = 100%) (IL-8; Conc. 1000.0 μM)	% MIP-1α (Vehicle + LPS = 100%) (MIP-1α; Conc. 1000.0 μM)	% MIP-1β (DMSO + LPS = 100%) (MIP-1β; Conc. 1000.0 μM)	% Change in TEER from DMSO (Caco-2 colonocytes; 1 mM)	% Change in TEER from DMSO (Caco-2 colonocytes; 3 mM)	further results
C[C@@H](O)CCO [(R) 1,3-butanediol]	− (− = >90% Vehicle)	− (− = >90% Vehicle)	+ (+ = <90% Vehicle)	− (<125%: −)	= ((=) 90% > <110% DMSO)	= ((=) 90% > <110% DMSO)	= ((=) 90% > <110% DMSO)								% IL-8 (Vehicle + LPS = 100%) (IL-8; Conc. 100.0 μM): − (− = >90% Vehicle); % MIP-1α (Vehicle + LPS = 100%) (MIP-1α; Conc. 100.0 μM): − (− = >90% Vehicle); % MIP-1β (DMSO + LPS = 100%) (MIP-1β; Conc. 100.0 μM): + (+ = <90% Vehicle); % Change in TEER from DMSO (Caco-2 colonocytes; 0.5 mM): − (<125%: −); Cell viability % DMSO (naïve CD4+ T cells; 100 μM): = (90% > <110%: =); Cell viability % DMSO (naïve CD4+ T cells; 0.5 mM): = (90% > <110%: =); activity at 100 µM (naïve CD4+ T cells; Homo sapiens, 144 h, TGF-β, IL-2, 100 μM, read-out: Treg induction % DMSO): 90 to 110%; activity at 500 µM (naïve CD4+ T cells; Homo sapiens, 144 h, TGF-β, IL-2, 0.5 mM, read-out: Treg induction % DMSO): 90 to 110%
Oc1ccc(C=Cc2cc(O)cc(O)c2)cc1 [resveratrol]				+++ (200%>: +++)	+ ((+) 50% > <90% DMSO)	+ ((+) 50% > <90% DMSO)	= ((=) 90% > <110% DMSO)	− (<90%: −)	110 to 130						% IL-8 (Vehicle + LPS = 100%) (IL-8; Conc. 10.0 μM): − (− = >90% Vehicle); % MIP-1α (Vehicle + LPS = 100%) (MIP-1α; Conc. 10.0 μM): + (+ = <90% Vehicle); % MIP-1β (DMSO + LPS = 100%) (MIP-1β; Conc. 10.0 μM): ++ (++ = <70% Vehicle); % Change in TEER from DMSO (Caco-2 colonocytes; 10 μM): − (<125%: −); Cell viability % DMSO (naïve CD4+ T cells; 10 μM): − (<90%: −); activity at 10 µM (naïve CD4+ T cells; Homo sapiens, 144 h, TGF-β, IL-2, 10 μM, read-out: Treg induction % DMSO): 110 to 130%
O=c1c(O)c(-c2ccc(O)c(O)c2)oc2cc(O)cc(O)c12 [quercetin]					+ ((+) 50% > <90% DMSO)	+ ((+) 50% > <90% DMSO)	+ ((+) 50% > <90% DMSO)	= (90% > <110%: =)	90 to 110						% IL-8 (Vehicle + LPS = 100%) (IL-8; Conc. 0.1 μM): − (− = >90% Vehicle); % IL-8 (Vehicle + LPS = 100%) (IL-8; Conc. 1.0 μM): − (− = >90% Vehicle); % MIP-1α (Vehicle + LPS = 100%) (MIP-1α; Conc. 0.1 μM): − (− = >90% Vehicle); % MIP-1α (Vehicle + LPS = 100%) (MIP-1α; Conc. 1.0 μM): − (− = >90% Vehicle); % MIP-1β (DMSO + LPS = 100%) (MIP-1β; Conc. 0.1 μM): − (− = >90% Vehicle); % MIP-1β (DMSO + LPS = 100%) (MIP-1β; Conc. 1.0 μM): − (− = >90% Vehicle); % Change in TEER from DMSO (Caco-2 colonocytes; 100 nM): − (<125%: −); % Change in TEER from DMSO (Caco-2 colonocytes; 1 μM): + (125% > <150%: +); Cell viability % DMSO (naïve CD4+ T cells; 100 nM): = (90% > <110%: =); activity at 0.1 µM (naïve CD4+ T cells; Homo sapiens, 144 h, TGF-β, IL-2, 100 nM, read-out: Treg induction % DMSO): 90 to 110%
CCCC(=O)O [butyrate]	++ (++ = <70% Vehicle)	+++ (+++ = <50% Vehicle)	+++ (+++ = <50% Vehicle)		++ ((++) <50% DMSO)	+ ((+) 50% > <90% DMSO)	− ((−) >110% DMSO)			++ (++ = <70% Vehicle)	+++ (+++ = <50% Vehicle)	+++ (+++ = <50% Vehicle)	− (<125%: −)	− (<125%: −)	% Change in TEER from DMSO (Caco-2 colonocytes; 5 mM): ++ (150% > <200%: ++)
CC(=O)O [acetate]	− (− = >90% Vehicle)	+ (+ = <90% Vehicle)	+ (+ = <90% Vehicle)		= ((=) 90% > <110% DMSO)	= ((=) 90% > <110% DMSO)	= ((=) 90% > <110% DMSO)			− (− = >90% Vehicle)	++ (++ = <70% Vehicle)	+ (+ = <90% Vehicle)	− (<125%: −)	− (<125%: −)	% IL-8 (Vehicle + LPS = 100%) (IL-8; Conc. 3000.0 μM): +++ (+++ = <50% Vehicle); % MIP-1α (Vehicle + LPS = 100%) (MIP-1α; Conc. 3000.0 μM): +++ (+++ = <50% Vehicle); % MIP-1β (DMSO + LPS = 100%) (MIP-1β; Conc. 3000.0 μM): +++ (+++ = <50% Vehicle)
